Data on ten compounds can be found in patent US8987239B2, “19-nor-steroid derivatives with a 15α,16α-methylene group and a saturated 17,17-spirolactone ring, use thereof, and medicaments containing said derivatives” (Bayer Intellectual Property GmbH, priority 2007, dated 2015).

Where two headings read alike, the source gives them in different places.

Assay [1] concerns the target T1, progesterone receptor (Homo sapiens (Human), UniProt P06401). The experiment in a line: Progestational action by transactivation test (CHO K1 reporter cells, luciferase). It is filed as cell-based. To be noted: for Emax: read-out: In vitro Transactivation Progesterone receptor Agonisten Efficacy. The procedure:
4. Determination of Progestational Action by Means of Transactivation Tests:
The test compounds were added eight hours later, and the cells were incubated with the compounds for 16 hours. The tests were carried out in triplicate. At the end of incubation the medium containing the effector was removed and replaced with lysis buffer. After luciferase assay substrate (Promega, #E1501) had been added, the 96-well plates were then put in a microplate luminometer (Pherastar, BMG labtech), and the luminescence was measured. The IC50 values were evaluated using software for calculating dose-effect relations.
Target sequence in this assay (P06401 679-913, species assumed): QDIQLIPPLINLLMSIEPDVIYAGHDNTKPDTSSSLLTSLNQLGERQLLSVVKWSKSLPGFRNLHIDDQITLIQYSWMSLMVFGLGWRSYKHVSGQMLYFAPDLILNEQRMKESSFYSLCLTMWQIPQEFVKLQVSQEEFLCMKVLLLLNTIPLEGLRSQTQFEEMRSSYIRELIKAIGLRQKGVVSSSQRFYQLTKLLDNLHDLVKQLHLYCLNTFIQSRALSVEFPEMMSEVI

Assay [2] deals with mineralocorticoid receptor (Homo sapiens (Human), UniProt P08235). The assay is described as follows: Mineralocorticoid receptor binding test (displacement of 3H-aldosterone). To be noted: cytosol from MR-expressing insect cells (Hi5), reference 3H-aldosterone. The text has this: 2. Mineralocorticoid Receptor Binding Test:
The target of assay [3] is T1, progesterone receptor. The assay is described as follows: Progesterone receptor binding test (displacement of 3H-progesterone). To be noted: for Receptor binding Progesterone receptor Competition factor: CF relative to progesterone (=1), CF <1 means higher affinity; for CF PR/CF MR: ratio of competition factors, progesterone receptor to mineralocorticoid receptor; for IC50: read-out: Receptor binding Progesterone receptor IC50, cytosol from PR-expressing insect cells (Hi5), 3H-progesterone. On the technique in general: Displacement assays read how much labelled ligand stays bound in the presence of the test substance.
Target sequence in this assay (P06401 whole entry, species assumed): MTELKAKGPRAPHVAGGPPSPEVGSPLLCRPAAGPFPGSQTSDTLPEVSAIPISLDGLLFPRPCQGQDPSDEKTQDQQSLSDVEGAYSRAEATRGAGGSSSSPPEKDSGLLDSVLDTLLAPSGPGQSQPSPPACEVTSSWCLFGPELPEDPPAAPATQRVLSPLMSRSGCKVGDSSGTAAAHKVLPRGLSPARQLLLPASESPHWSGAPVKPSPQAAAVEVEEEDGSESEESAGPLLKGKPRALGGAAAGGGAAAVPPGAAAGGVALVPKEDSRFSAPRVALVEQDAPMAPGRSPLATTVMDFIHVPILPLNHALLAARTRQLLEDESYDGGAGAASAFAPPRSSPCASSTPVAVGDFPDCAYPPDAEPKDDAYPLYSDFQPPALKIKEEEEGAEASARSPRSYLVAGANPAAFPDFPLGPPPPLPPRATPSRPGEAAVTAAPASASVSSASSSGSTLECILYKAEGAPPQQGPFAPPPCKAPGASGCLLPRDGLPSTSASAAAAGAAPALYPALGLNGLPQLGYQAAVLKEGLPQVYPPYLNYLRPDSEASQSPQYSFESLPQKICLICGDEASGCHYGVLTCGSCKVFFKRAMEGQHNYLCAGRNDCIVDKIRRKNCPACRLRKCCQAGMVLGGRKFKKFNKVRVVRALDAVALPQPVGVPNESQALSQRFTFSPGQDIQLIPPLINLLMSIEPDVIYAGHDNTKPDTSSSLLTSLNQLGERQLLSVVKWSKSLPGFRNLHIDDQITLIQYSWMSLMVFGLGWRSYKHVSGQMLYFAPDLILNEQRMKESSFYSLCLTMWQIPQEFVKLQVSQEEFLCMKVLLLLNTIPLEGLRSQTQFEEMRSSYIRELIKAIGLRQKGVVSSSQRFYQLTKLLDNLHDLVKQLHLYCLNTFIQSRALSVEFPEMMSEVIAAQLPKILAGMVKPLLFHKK
Procedure: Progesterone Receptor Binding Test:
Using cytosol from progesterone receptor-expressing insect cells (Hi5), competitive binding to the progesterone receptor was determined from the ability to displace ^3H-progesterone as reference substance from the receptor.

Assay [4] has as its target androgen receptor (Homo sapiens (Human), UniProt P10275). The experiment in a line: Androgen receptor binding test (displacement of 3H-testosterone). To be noted: cytosol from AR-expressing insect cells (Hi5); for Receptor binding Androgen receptor Competition factor: reference 3H-testosterone; for IC50: read-out: Receptor binding Androgen receptor IC50, 3H-testosterone.
Procedure: Androgen Receptor Binding Test:
The test was carried out as in 1, with the following modifications: cytosol from androgen receptor-expressing insect cells (Hi5) was used, and the reference substance was ^3H-testosterone.

[5] abbreviates: CHO K1 PR-LBD/Gal4 luciferase reporter cells, 16 hours incubation, read-out: In vitro Transactivation Progesterone receptor Agonisten EC50.
[6] abbreviates: CHO K1 PR-LBD/Gal4 luciferase reporter cells, 16 hours incubation.

Chain of mineralocorticoid receptor (P08235 whole entry, species assumed): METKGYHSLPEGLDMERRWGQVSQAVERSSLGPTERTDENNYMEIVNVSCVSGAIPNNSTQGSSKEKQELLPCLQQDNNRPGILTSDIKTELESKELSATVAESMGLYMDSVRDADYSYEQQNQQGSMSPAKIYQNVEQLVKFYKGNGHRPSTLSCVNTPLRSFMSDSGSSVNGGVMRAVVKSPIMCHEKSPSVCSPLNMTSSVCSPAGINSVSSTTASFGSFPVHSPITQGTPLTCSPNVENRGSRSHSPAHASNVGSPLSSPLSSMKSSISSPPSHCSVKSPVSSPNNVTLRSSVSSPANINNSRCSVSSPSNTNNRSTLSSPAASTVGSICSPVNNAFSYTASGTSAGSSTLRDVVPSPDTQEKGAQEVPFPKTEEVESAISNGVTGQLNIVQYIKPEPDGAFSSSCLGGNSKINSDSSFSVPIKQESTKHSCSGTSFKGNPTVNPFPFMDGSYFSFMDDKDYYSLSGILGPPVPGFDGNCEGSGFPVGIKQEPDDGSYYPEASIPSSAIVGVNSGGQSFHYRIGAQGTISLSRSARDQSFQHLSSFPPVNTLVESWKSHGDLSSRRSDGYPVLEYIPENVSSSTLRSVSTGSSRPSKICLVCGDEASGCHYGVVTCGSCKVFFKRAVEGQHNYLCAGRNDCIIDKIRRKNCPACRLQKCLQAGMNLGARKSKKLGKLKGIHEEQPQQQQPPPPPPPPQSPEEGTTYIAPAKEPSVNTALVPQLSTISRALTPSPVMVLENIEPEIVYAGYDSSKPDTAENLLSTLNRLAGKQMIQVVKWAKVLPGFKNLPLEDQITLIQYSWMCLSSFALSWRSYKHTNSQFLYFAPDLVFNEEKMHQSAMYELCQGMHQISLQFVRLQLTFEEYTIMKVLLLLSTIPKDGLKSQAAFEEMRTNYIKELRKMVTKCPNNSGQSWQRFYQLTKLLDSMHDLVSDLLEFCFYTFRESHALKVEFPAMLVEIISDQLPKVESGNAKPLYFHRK
Chain of androgen receptor (P10275 whole entry, species assumed): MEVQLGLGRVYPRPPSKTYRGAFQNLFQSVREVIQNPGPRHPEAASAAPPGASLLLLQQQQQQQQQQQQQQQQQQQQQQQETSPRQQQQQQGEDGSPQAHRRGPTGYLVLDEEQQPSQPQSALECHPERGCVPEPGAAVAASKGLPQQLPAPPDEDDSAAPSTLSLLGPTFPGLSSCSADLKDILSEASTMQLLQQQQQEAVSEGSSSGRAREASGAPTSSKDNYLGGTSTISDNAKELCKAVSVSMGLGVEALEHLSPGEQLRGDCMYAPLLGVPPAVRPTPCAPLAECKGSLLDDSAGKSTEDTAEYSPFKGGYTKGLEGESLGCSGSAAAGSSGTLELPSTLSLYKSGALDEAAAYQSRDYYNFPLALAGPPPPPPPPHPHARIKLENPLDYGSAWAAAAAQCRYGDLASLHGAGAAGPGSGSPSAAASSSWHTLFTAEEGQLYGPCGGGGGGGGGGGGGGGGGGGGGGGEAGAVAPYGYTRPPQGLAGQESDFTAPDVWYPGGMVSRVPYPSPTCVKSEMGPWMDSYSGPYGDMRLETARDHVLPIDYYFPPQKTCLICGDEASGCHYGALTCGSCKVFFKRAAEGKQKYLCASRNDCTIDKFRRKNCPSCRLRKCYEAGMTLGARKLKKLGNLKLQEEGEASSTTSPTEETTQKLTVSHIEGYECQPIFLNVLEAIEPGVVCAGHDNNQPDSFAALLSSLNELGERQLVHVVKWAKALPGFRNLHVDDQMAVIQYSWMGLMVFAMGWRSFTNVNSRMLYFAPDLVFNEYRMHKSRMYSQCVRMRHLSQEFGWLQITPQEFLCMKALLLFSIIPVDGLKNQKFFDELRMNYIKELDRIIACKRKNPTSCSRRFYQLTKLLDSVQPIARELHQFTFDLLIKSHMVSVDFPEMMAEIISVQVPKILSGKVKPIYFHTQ

With `C[C@]12CCC3C4CCC(=O)C=C4[C@@H]4C[C@@H]4C3C1C1CC1[C@@]21CCC(=O)O1` (stereo in doubt) [compound 9], in assay [1] (setting [5]), the EC50 (in general, the concentration at which the effect is half-maximal) was 1 nM. Besides, the Emax in assay [1] (CHO-K1, 16 h) is 77.4%.
Regarding `C[C@]12CCC(=O)C=C1[C@@H]1C[C@@H]1[C@H]1[C@@H]3[C@@H]4C[C@@H]4[C@@]4(CCC(=O)O4)[C@@]3(C)CC[C@@H]12` [A, 6β,7β-15β,16β-dimethylene-3-oxo-17-pregn-4-ene-21,17β-carbolactone, reference compound], the “Receptor binding Mineralocorticoid receptor Competition factor” value in assay [2] stood at 0.5. For the same compound, the Emax in assay [1] (setting [6]) was determined as 72.2%. For the same compound, in assay [3], the “Receptor binding Progesterone receptor Competition factor” value is reported as 2.7.
With `C[C@]12CCC3C4CCC(=O)C=C4CCC3C1C1CC1[C@@]21CCC(=O)O1` (stereo partly drawn) [Example 1, 17β-Hydroxy-15α,16α-methylene-19-nor-17α-pregna-4-en-3-one-21-carboxylic acid γ-lactone], the “Receptor binding Mineralocorticoid receptor Competition factor” value in assay [2] is given as 1.8. Further, the Emax in assay [1] (CHO-K1, 16 h) is 55.9%. Also, in assay [4], the “Receptor binding Androgen receptor Competition factor” value was determined as 110.0 and the IC50 (commonly the concentration that gives 50% inhibition) was found to be 6 nM.
Regarding `CC1CC2=CC(=O)CCC2C2CC[C@@]3(C)C(C4CC4[C@@]34CCC(=O)O4)C12` (stereo partly drawn) [Example 3, 17β-Hydroxy-7α-methyl-15α,16α-methylene-19-nor-17α-pregna-4-en-3-one-21-carboxylicacid γ-lactone], the “Receptor binding Mineralocorticoid receptor Competition factor” value in assay [2] was 1.3. Moreover, the Emax in assay [1] (CHO-K1, 16 h) amounted to 87%. Besides, in assay [4], the “Receptor binding Androgen receptor Competition factor” value was determined as 2.8 and the IC50 was determined as 61 nM.
As for `CCC1CC2=CC(=O)CCC2C2CC[C@@]3(C)C(C4CC4[C@@]34CCC(=O)O4)C12` (stereo partly drawn) [Example 4, 17β-Hydroxy-7α-ethyl-15α,16α-methylene-19-nor-17α-pregna-4-en-3-one-21-carboxylic acid γ-lactone], the “Receptor binding Mineralocorticoid receptor Competition factor” value in assay [2] came to 1.2. For the same compound, the EC50 in assay [1] was 0.7 nM. In addition, in assay [1] (CHO-K1, 16 h), the Emax stood at 56.7%. Further, in assay [4], the “Receptor binding Androgen receptor Competition factor” value came out at 5.6 and the IC50 stood at 74 nM. Moreover, in assay [3], the “Receptor binding Progesterone receptor Competition factor” value is 1.74, the “CF PR/CF MR” value is 1.45 and the IC50 was determined as 33 nM.
In the case of `C=CC1CC2=CC(=O)CCC2C2CC[C@@]3(C)C(C4CC4[C@@]34CCC(=O)O4)C12` (stereo partly drawn) [Example 5, 17β-Hydroxy-7α-vinyl-15α,16α-methylene-19-nor-17α-pregna-4-en-3-one-21-carboxylic acid γ-lactone], the “Receptor binding Mineralocorticoid receptor Competition factor” value in assay [2] is reported as 1.4. The compound also returned an EC50 in assay [1] of 3.4 nM. For the same compound, the Emax in assay [1] (CHO-K1, 16 h) was 66.1%. In assay [4], the “Receptor binding Androgen receptor Competition factor” value is 3.0 and the half-maximal inhibitory concentration (IC50) was determined as 55 nM. Also, in assay [3], the “Receptor binding Progesterone receptor Competition factor” value is given as 1.16, the “CF PR/CF MR” value stood at 0.83 and the IC50 came out at 15 nM.
In the case of `C[C@]12CCC3C4CCC(=O)C=C4CC(C4CC4)C3C1C1CC1[C@@]21CCC(=O)O1` (stereo partly drawn) [Example 6, 17β-Hydroxy-7α-cyclopropyl-15α,16α-methylene-19-nor-17α-pregna-4-en-3-one-21-carboxylic acid γ-lactone], the “Receptor binding Mineralocorticoid receptor Competition factor” value in assay [2] was determined as 1.6. The compound also yielded an EC50 in assay [1] of 1 nM. For the same compound, in assay [1] (CHO-K1, 16 h), the Emax was determined as 48.6%. In assay [4], the “Receptor binding Androgen receptor Competition factor” value is on record as 6.3 and the IC50 was 78 nM. Further, in assay [3], the “Receptor binding Progesterone receptor Competition factor” value was determined as 2.65, the “CF PR/CF MR” value worked out at 1.66 and the IC50 turned out to be 51 nM.
Consider `C[C@]12CCC3C4CCC(=O)C=C4[C@H](CO)CC3C1C1CC1[C@@]21CCC(=O)O1` (stereo partly drawn) [Example 7, 17β-Hydroxy-6β-hydroxymethyl-15α,16α-methylene-19-nor-17α-pregna-4-en-3-one-21-carboxylic acid γ-lactone], for which, in assay [2], the “Receptor binding Mineralocorticoid receptor Competition factor” value is on record as 2.1. Besides, the EC50 in assay [1] (setting [5]) is 910 nM. Besides, the Emax in assay [1] (setting [6]) worked out at 22.8%. In addition, in assay [4], the “Receptor binding Androgen receptor Competition factor” value is 1000.0 and the IC50 was determined as 10000 nM. Besides, in assay [3], the “Receptor binding Progesterone receptor Competition factor” value stood at 49.90, the “CF PR/CF MR” value came out at 23.76 and the IC50 is 1100 nM.
As to `C[C@]12CCC3C4CCC(=O)C=C4C4(CC4)CC3C1C1CC1[C@@]21CCC(=O)O1` (stereo partly drawn) [Example 8, 6,6-(1,2-Ethanediyl)-17β-hydroxy-15α,16α-methylene-19-nor-17α-pregna-4-en-3-one-21-carboxylic acid γ-lactone], in assay [2], the “Receptor binding Mineralocorticoid receptor Competition factor” value stood at 0.9. The compound further gave an EC50 in assay [1] of 0.1 nM. Besides, the Emax in assay [1] (CHO-K1, 16 h) stood at 69.7%. In assay [4], the “Receptor binding Androgen receptor Competition factor” value was found to be 1.4 and the IC50 came to 26 nM. Further, in assay [3], the “Receptor binding Progesterone receptor Competition factor” value is 0.71, the “CF PR/CF MR” value came out at 0.79 and the IC50 turned out to be 8.9 nM.
For `C[C@]12CCC3C4CCC(=O)C=C4C4CC4C3C1C1CC1[C@@]21CCC(=O)O1` (stereo partly drawn) [Example 9 (B), 17β-hydroxy-6α,7α-15α,16α-bismethylene-19-nor-17α-pregna-4-en-3-one-21-carboxylic acid γ-lactone], in assay [1] (setting [6]), the Emax was 107%.
